# Measurements: patent EP0052564A1, “Derivatives of 2-thiazolyl-oxamic acid substituted in position 4 by a thienyl or furyl radical, their preparation and use as pharmaceutical preparations” (PIERRE FABRE S.A., priority 1980, dated 1982)
# Experiment: Solubility (in water, ethanol, methyl pyrrolidone)
# Assay type: physicochemical
# Conditions: for Solubilités : dans l'éthanol: ethanol; for Solubilités : dans la méthyl pyrrolidone: methyl pyrrolidone; for Solubilités : dans l'eau: water
Molecule,Solubilités : dans l'éthanol [%],Solubilités : dans la méthyl pyrrolidone [%],Solubilités : dans l'eau
"CCOC(=O)C(=O)Nc1nc(-c2cccs2)cs1 [Exemple 1, (α thienyl-4 thiazolyl-2) oxamate d'éthyle]",1,50,insoluble
"O=C(O)C(=O)Nc1nc(-c2cccs2)cs1 [Exemple 2, Acide (α thienyl-4 thiazolyl-2) oxamique]",,50,insoluble
"O=C(O)C(=O)Nc1nc(-c2cccs2)cs1 [Exemple 3, (α thienyl-4 thiazolyl-2) oxamate de sodium]",,15,insoluble
"CCOC(=O)C(=O)Nc1nc(-c2ccsc2)cs1 [Exemple 6, ( β thienyl-4 thiazolyl-2) oxamate d'éthyle]",,50,insoluble
"CCOC(=O)C(=O)Nc1nc(-c2ccco2)cs1 [Exemple 7, (α furyl-4 thiazolyl-2) oxamate d'éthyle]",3,50,insoluble
"O=C(O)C(=O)Nc1nc(-c2ccco2)cs1 [Exemple 8, Acide (α furyl-4 thiazolyl-2) oxamique]",,25,insoluble
(α thienyl-4 thiazolyl-2) oxamate d'éthanolamine [Exemple 5],,15,insoluble
(α thienyl-4 thiazolyl-2) oxamate de zinc [Exemple 4],,50,insoluble
